# Data reported in US20240150377A1, “MODULATORS OF CYSTIC FIBROSIS TRANSMEMBRANE CONDUCTANCE REGULATOR” (VERTEX PHARMACEUTICALS INCORPORATED, priority 2020, published 2024).
# Where two headings read alike, the source gives them in different places.
# Biological target: T1, CFTR (Homo sapiens, UniProt P13569, DEL508-508)
# T1 construct: endogenous in cells; host or cells: primary human bronchial epithelial cells from CF subjects (F508del/MF-HBE), differentiated at air-liquid interface
# Assay: HBE assay: Ussing chamber assay of CFTR-mediated short-circuit currents
# Format: cell-based
# Protocol: 1. Ussing Chamber Assay of CFTR-Mediated Short-Circuit Currents
# (§1) Ussing chamber experiments were performed using human bronchial epithelial (HBE) cells derived from CF subjects heterozygous for F508del and a minimal function CFTR mutation (F508del/MF-HBE) and cultured as previously described (Neuberger T, Burton B, Clark H, Van Goor F Methods Mol Biol 2011:741:39-54). After four days the apical media was removed, and the cells were grown at an air liquid interface for >14 days prior to use.
# (§2) To isolate the CFTR-mediated short-circuit (ISC) current, F508del/MF-HBE grown on Costar® Snapwell™ cell culture inserts were mounted in an Ussing chamber and the transepithelial ISC was measured under voltage-clamp recording conditions (Vhold=0 mV) at 37° C. The basolateral solution contained (in mM) 145 NaCl, 0.83 K2HPO4, 3.3 KH2PO4, 1.2 MgCl2, 1.2 CaCl2), 10 Glucose, 10 HEPES (pH adjusted to 7.4 with NaOH) and the apical solution contained (in mM) 145 NaGluconate, 1.2 MgCl2, 1.2 CaCl2), 10 glucose, 10 HEPES (pH adjusted to 7.4 with NaOH) and 30 μM amiloride to block the epithelial sodium channel. Forskolin (20 μM) was added to the apical surface to activate CFTR, followed by apical addition of a CFTR inhibitor cocktail consisting of BPO, GlyH-101, and CFTR inhibitor 172 (each at 20 μM final assay concentration) to specifically isolate CFTR currents. The CFTR-mediated ISC (μA/cm^2) for each condition was determined from the peak forskolin response to the steady-state current following inhibition.
# 2. Identification of Corrector Compounds
# The activity of the CFTR corrector compounds on the CFTR-mediated ISC was determined in Ussing chamber studies as described above. The F508del/MF-HBE cell cultures were either incubated with the corrector compounds at a range of concentrations in combination with 1 μM Ivacaftor or were incubated with the corrector compounds at a single fixed concentration of 10 μM in combination with 1 μM Ivacaftor for 18-24 hours at 37° C. and in the presence of 20% human serum. The concentration of corrector compounds with 1 μM Ivacaftor during the 18-24 hours incubations was kept constant throughout the Ussing chamber measurement of the CFTR-mediated ISC to ensure compounds were present throughout the entire experiment.
# Ussing Chamber Assay of CFTR-mediated short-circuit currents
# as §1, with “(HIBE)” for “(HBE)”, “(F508del/MIF-HIBE)” for “(F508del/MF-HBE)”
# as §2, with “KH2PO4,” for “K2HPO4,”
# Identification of Corrector Compounds
# [1] = Table 11, at 10 μM, read-out: HBE Activity at 10 μM (%)
# [2] = Table 11, read-out: HBE Max Activity (%)
# [3] = Table 10, read-out: HBE Max activity (%)
# [4] = HBE assay, read-out: HBE Max activity (%)
# [5] = HBE assay, 10 μM, read-out: HBE Activity at 10 μM (%)
# T1 sequence (P13569 with tags, fused parts or gaps DEL508-508): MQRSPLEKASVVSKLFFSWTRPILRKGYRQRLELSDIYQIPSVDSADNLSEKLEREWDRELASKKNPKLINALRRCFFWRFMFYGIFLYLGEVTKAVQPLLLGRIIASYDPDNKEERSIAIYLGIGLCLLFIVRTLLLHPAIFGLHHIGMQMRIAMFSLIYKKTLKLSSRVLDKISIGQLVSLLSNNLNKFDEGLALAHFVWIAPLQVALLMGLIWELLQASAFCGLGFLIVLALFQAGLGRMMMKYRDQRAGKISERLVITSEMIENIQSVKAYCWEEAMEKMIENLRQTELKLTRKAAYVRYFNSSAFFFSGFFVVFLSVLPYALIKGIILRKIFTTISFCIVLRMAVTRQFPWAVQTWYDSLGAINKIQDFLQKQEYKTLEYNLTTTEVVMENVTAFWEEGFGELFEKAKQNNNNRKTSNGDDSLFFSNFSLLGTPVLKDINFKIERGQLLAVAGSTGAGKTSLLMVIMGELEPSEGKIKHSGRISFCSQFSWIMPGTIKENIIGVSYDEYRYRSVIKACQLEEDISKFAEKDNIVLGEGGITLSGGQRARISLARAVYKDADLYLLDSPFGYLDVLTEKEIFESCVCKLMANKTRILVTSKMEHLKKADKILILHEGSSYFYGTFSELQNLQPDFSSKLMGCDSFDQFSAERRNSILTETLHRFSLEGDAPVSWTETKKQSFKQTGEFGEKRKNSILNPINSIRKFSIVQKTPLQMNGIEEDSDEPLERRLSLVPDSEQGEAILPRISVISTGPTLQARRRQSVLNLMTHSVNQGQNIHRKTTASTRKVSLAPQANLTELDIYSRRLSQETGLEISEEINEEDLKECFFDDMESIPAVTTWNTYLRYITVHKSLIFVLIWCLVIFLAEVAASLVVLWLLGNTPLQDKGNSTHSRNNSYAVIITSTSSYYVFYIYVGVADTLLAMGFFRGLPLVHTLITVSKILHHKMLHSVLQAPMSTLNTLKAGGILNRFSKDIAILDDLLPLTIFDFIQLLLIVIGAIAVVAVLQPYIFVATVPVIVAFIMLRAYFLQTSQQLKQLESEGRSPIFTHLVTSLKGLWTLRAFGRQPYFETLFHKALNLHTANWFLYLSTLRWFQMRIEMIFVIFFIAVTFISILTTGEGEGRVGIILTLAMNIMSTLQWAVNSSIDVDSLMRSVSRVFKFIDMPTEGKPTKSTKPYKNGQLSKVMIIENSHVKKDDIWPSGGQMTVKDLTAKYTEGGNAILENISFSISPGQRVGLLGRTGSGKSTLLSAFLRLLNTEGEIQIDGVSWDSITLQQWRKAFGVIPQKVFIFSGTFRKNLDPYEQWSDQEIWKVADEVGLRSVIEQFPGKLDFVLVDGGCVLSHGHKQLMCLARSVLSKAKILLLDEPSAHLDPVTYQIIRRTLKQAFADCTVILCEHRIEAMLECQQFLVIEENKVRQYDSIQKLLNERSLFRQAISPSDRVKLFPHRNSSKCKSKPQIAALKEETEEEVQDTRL
compound,measurement,setting,value
"Cc1cccc(C)c1-c1cc2nc(n1)NS(=O)(=O)c1cccc(c1)C(=O)N(CC1CCCC(C)(C)O1)[C@H](CC(C)(C)C)CO2 (single isomer, unassigned) [Compound 19]",activation at 10 µM,[1],> 60%
"Cc1cccc(C)c1-c1cc2nc(n1)NS(=O)(=O)c1cccc(c1)C(=O)N(CC1CCC(C)(C)CO1)[C@H](CC(C)(C)C)CO2 (single isomer, unassigned) [Compound 22]",EC50,"Table 11, read-out: HBE EC50",< 1 µM
same,Emax,[2],> 60%
"Cc1cccc(C)c1-c1cc2nc(n1)NS(=O)(=O)c1cccc(c1)C(=O)N(CC1CCC(C)(C)CO1)[C@H](CC(C)(C)C)CO2 (single isomer, unassigned) [Compound 23]",EC50,"Table 11, read-out: HBE EC50",< 1 µM
"Cc1cccc(C)c1-c1cc2nc(n1)NS(=O)(=O)c1cccc(c1)C(=O)N(C[C@H]1CC(C)(C)CCO1)[C@H](CC(C)(C)C)CO2 (single isomer, unassigned) [Compound 24]",activation at 10 µM,[1],> 60%
"Cc1cccc(C)c1-c1cc2nc(n1)NS(=O)(=O)c1cccc(c1)C(=O)N(CC1CC(C)(C)CCO1)[C@H](CC(C)(C)C)CO2 (single isomer, unassigned) [Compound 25]",activation at 10 µM,[1],> 60%
"Cc1cccc(C)c1-c1cc2nc(n1)NS(=O)(=O)c1cccc(c1)C(=O)N(CC1OCCC1(C)C)[C@H](CC(C)(C)C)CO2 (single isomer, unassigned) [Compound 26]",activation at 10 µM,[1],> 60%
"Cc1cccc(C)c1-c1cc2nc(n1)NS(=O)(=O)c1cccc(c1)C(=O)N(CC1CCOC(C)(C)C1)[C@H](CC(C)(C)C)CO2 (single isomer, unassigned) [Compound 28]",activation at 10 µM,[1],> 60%
"Cc1cccc(C)c1-c1cc2nc(n1)NS(=O)(=O)c1cccc(c1)C(=O)N(CC1CCC(C)(C)OC1)[C@H](CC(C)(C)C)CO2 (single isomer, unassigned) [Compound 31]",activation at 10 µM,[1],> 60%
"Cc1cccc(C)c1-c1cc2nc(n1)NS(=O)(=O)c1cccc(c1)C(=O)N(CC1CCC(C)(C)O1)[C@H](CC(C)(C)C)CO2 (single isomer, unassigned) [Compound 33]",activation at 10 µM,[1],> 60%
"Cc1cccc(C)c1-c1cc2nc(n1)NS(=O)(=O)c1cccc(c1)C(=O)N(CC1CCC(C)(C)O1)[C@H](CC(C)(C)C)CO2 (single isomer, unassigned) [Compound 34]",EC50,"Table 11, read-out: HBE EC50",< 1 µM
same,Emax,[2],> 60%
"Cc1cccc(C)c1-c1cc2nc(n1)NS(=O)(=O)c1cccc(c1)C(=O)N(CC1OCCCC1(C)C)[C@H](CC(C)(C)C)CO2 (single isomer, unassigned) [Compound 35]",activation at 10 µM,[1],> 60%
"Cc1cccc(C)c1-c1cc2nc(n1)NS(=O)(=O)c1cccc(c1)C(=O)N(CC1CC(N3C[C@@H](C)O[C@@H](C)C3)C1)[C@H](CC(C)(C)C)CO2 (single isomer, unassigned) [Compound 63]",EC50,"read-out: HBE EC50, Table 10",< 1 µM
"Cc1cccc(C)c1-c1cc2nc(n1)NS(=O)(=O)c1cccc(c1)C(=O)N(CC1CC(N3C[C@@H](C)O[C@@H](C)C3)C1)[C@H](CC(C)(C)C)CO2 (single isomer, unassigned) [Compound 64]",EC50,"HBE EC50 (μM), Table 10",< 1 µM
same,Emax,read-out: HBE Max activity (%),> 60%
"Cc1cccc(C)c1-c1cc2nc(n1)NS(=O)(=O)c1cccc(c1)C(=O)N(C[C@H]1CC[C@@H](O)CC1)[C@H](CC(C)(C)C)CO2 (single isomer, unassigned) [Compound 151]",EC50,"Table 10, read-out: HBE EC50",< 1 µM
same,Emax,[3],> 60%
"Cc1cccc(C)c1-c1cc2nc(n1)NS(=O)(=O)c1cccc(c1)C(=O)N(C[C@H]1CC[C@@H](O)CC1)[C@H](CC(C)(C)C)CO2 (single isomer, unassigned) [Compound 152]",activation at 10 µM,"Table 10, at 10 μM, read-out: HBE activity at 10 (μM) (%)",> 60%
"Cc1cccc(C)c1-c1cc2nc(n1)NS(=O)(=O)c1cccc(c1)C(=O)N(CC1CCC(N3CCOCC3)CC1)[C@H](CC(C)(C)C)CO2 (single isomer, unassigned) [Compound 153]",EC50,"Table 10, read-out: HBE EC50",< 1 µM
"Cc1cccc(C)c1-c1cc2nc(n1)NS(=O)(=O)c1cccc(c1)C(=O)N(CC1CCC(N3CCOCC3)CC1)[C@H](CC(C)(C)C)CO2 (single isomer, unassigned) [Compound 154]",EC50,"Table 10, read-out: HBE EC50",< 1 µM
same,Emax,[3],> 60%
Cc1ccc(N2CCCC2C)nc1CN1C(=O)c2cccc(c2)S(=O)(=O)Nc2nc(cc(-c3c(C)cccc3C)n2)OC[C@H]1CC(C)(C)C (stereo in doubt) [Compound 1346],EC50,"HBE assay, read-out: HBE EC50",< 1 µM
same,Emax,[4],> 60%
Cc1cccc(C)c1-c1cc2nc(n1)NS(=O)(=O)c1cccc(c1)C(=O)N(Cc1cncc(N3CCCC3C)n1)[C@H](CC(C)(C)C)CO2 (stereo in doubt) [Compound 1366],EC50,"HBE assay, read-out: HBE EC50",< 1 µM
same,Emax,[4],> 60%
CCC(C)Oc1cnc(CN2C(=O)c3cccc(c3)S(=O)(=O)Nc3nc(cc(-c4c(C)cccc4C)n3)OC[C@H]2CC(C)C)nc1 (stereo in doubt) [Compound 1395],EC50,"HBE assay, read-out: HBE EC50",< 1 µM
same,Emax,[4],> 60%
Cc1cccc(C)c1-c1cc2nc(n1)NS(=O)(=O)c1cccc(c1)C(=O)N(Cc1cccc(N3CCOC[C@@H]3C)n1)[C@H](CC(C)(C)C)CO2 (stereo in doubt) [Compound 1400],EC50,"HBE assay, read-out: HBE EC50",< 1 µM
same,Emax,[4],> 60%
Cc1cccc(C)c1-c1cc2nc(n1)NS(=O)(=O)c1cccc(c1)C(=O)N(Cc1cccc(N3[C@H](C)CC[C@@H]3C)n1)[C@H](CC(C)(C)C)CO2 (stereo in doubt) [Compound 1401],EC50,"HBE assay, read-out: HBE EC50",< 1 µM
same,Emax,[4],> 60%
Cc1cccc(C)c1-c1cc2nc(n1)NS(=O)(=O)c1cccc(c1)C(=O)N(Cc1ncc(N3CC[C@H]3C)cn1)[C@H](CC(C)(C)C)CO2 (stereo in doubt) [Compound 1406],EC50,"HBE assay, read-out: HBE EC50",< 1 µM
Cc1cccc(C)c1-c1cc2nc(n1)NS(=O)(=O)c1cccc(c1)C(=O)N(Cc1cccc(N3CCC[C@@H]3CC(C)C)n1)[C@H](CC(C)(C)C)CO2 (stereo in doubt) [Compound 1429],EC50,"HBE assay, read-out: HBE EC50",< 1 µM
CCC1(CO)CCCN1c1cccc(CN2C(=O)c3cccc(c3)S(=O)(=O)Nc3nc(cc(-c4c(C)cccc4C)n3)OC[C@H]2CC(C)(C)C)n1 (stereo in doubt) [Compound 1458],activation at 10 µM,[5],> 60%
CC[C@@]1(CO)CCCN1c1cccc(CN2C(=O)c3cccc(c3)S(=O)(=O)Nc3nc(cc(-c4c(C)cccc4C)n3)OC[C@H]2CC(C)(C)C)n1 (stereo in doubt) [Compound 1459],activation at 10 µM,[5],> 60%
CO[C@H]1C[C@@H](Oc2cnc(CN3C(=O)c4cccc(c4)S(=O)(=O)Nc4nc(cc(-c5c(C)cccc5C)n4)OC[C@H]3CC(C)C)nc2)C1 (stereo in doubt) [Compound 1462],EC50,"HBE assay, read-out: HBE EC50",< 1 µM
Cc1cccc(C)c1-c1cc2nc(n1)NS(=O)(=O)c1cccc(c1)C(=O)N(Cc1ccnc(N3CCC[C@H]3C(C)C)n1)[C@H](CC(C)(C)C)CO2 (stereo in doubt) [Compound 1476],EC50,"HBE assay, read-out: HBE EC50",< 1 µM
COCC1CCC(C)(C)N1c1cncc(CN2C(=O)c3cccc(c3)S(=O)(=O)Nc3nc(cc(-c4c(C)cccc4C)n3)OC[C@H]2CC(C)(C)C)n1 (stereo in doubt) [Compound 1480],EC50,"HBE assay, read-out: HBE EC50",< 1 µM
same,Emax,[4],> 60%
